Source: patent publication US20220088115A1, “PHARMACEUTICAL COMPOSITION, COMPRISING INHIBITORY PEPTIDE AGAINST FAS SIGNALING, FOR PREVENTION OR TREATMENT OF OBESITY, FATTY LIVER, OR STEATOHEPATITIS” (SIGNET BIOTECH INC., priority 2018, published 2022)

Assays:
[1] = tested on: 3T3L1 cell line; assay: Cytotoxicity by CCK-8 analysis kit in 3T3L1 cell line; type: cell-based, murine; conditions: differentiated 3T3L1 cell lines, 100 μM to 1000 μM, 24 hours
Procedure: (§1) The 3T3L1 cell line was cultured in a DMEM culture medium containing 10% FBS, 1% penicillin, 1% streptomycin, and 25 mM glucose. The 3T3L1 cell line was aliquoted into the above DMEM culture solution at a concentration of 2×10^5 cells/ml to induce adipocyte maturation for 3 days, and then replaced with a culture solution containing insulin to induce adipocyte maturation again for 3 days. Thereafter, the 3T3L1 cell line was further cultured in the above DMEM culture solution for 2 days to achieve complete maturation of adipocytes.
The cytotoxicity experiments of the peptides described in 1. above were performed by a CCK-8 analysis kit (Dojindo Laboratories, Japan). The 3T3L1 cell line was treated with peptides at various concentrations (uM) and cytotoxicity was analyzed after 24 hours.

[2] = tested on: 3T3L1 cell line; assay: Inflammation-related cytokines in 3T3L1 cell culture solution (ELISA); type: cell-based, murine; conditions: 3T3L1 treated with FasL and FBP-8
Procedure: as §1
(§2) The cytokine levels of serum and tissues were analyzed with an ELISA kit (eBioscience, USA), and the triglyceride levels of liver tissues were confirmed with a triglyceride assay kit (Cayman, USA).

[3] = molecular target: T1, Fas (Mus musculus, UniProt P25446); assay: Binding of fluorescently labeled peptide to Fas in liver and white adipose tissue sections of HFD mice; conditions: sections from high fat diet (HFD) group
T1 construct: from tissue; host or cells: liver and white adipose tissue sections of high-fat-diet C57BL/6 mice
T1 sequence (P25446 22-327): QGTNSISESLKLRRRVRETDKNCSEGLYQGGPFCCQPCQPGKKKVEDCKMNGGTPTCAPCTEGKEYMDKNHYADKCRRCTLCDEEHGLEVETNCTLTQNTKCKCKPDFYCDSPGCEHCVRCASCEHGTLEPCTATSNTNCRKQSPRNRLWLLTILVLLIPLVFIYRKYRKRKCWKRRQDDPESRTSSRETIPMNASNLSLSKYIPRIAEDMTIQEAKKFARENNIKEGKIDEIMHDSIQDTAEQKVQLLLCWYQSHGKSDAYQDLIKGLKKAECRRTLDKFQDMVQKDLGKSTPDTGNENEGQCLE
Procedure: After the animal experiment was completed, mice were sacrificed to isolate liver tissues and white adipose tissues and prepare tissue sections. The prepared liver tissue and white adipose tissue sections were treated with an antigen retrieval buffer at 95° C. for 25 minutes and then cooled at room temperature. Thereafter, the tissue sections were treated with Tris Based Saline+Tween20 (TBST) containing 1% bovine serum albumin (BSA), 10% goat serum and 0.05% Tween 20 to undergo a blocking process, and were reacted with a Fas receptor-specific primary antibody at 4° C. for 18 hours. Thereafter, tissue sections were washed with TBST and reacted with a FITC-bound secondary antibody at room temperature for 2 hours.
In addition, in order to examine the tissue-binding ability of the peptide, the peptide to which Alexa 488 was bound was reacted with the primary antibody at 4° C. for 18 hours. The nuclei were stained with Hoechst 33342 (GE Healthcare), washed with TBST, and then confirmed.
The fluorescence signal of each tissue section was analyzed under a TCS-SP5 confocal microscope (Leica, Germany).

[4] = Delivery of fluorescently labeled peptide to organs of normal body weight mice; type: in vivo; conditions: intravenous (IV) or subcutaneous (SC) injection, 12 hours
[5] = tested on: obesity model mice; assay: TUNEL staining of dead cells, obesity model mice, intravenous FBP-8; type: in vivo, C57BL/6 mice; conditions: intravenous twice a week for 5 weeks
Procedure: (§3) All animal experiments performed for the present invention were approved by the Institutional Animal Care and Use Committee of Hanyang University. […] Thereafter, depending on the experimental group, 60 μg/one time of FBP8 were administered by intravenous injection twice a week for a total of 5 weeks (FIG. 13), or FBP7 was administered by subcutaneous injection twice a day.
Furthermore, a terminal deoxynucleotidyl transferase dUTP nick end labeling (TUNEL) analysis for each tissue was performed with an in situ cell death detection kit (Millipore, USA). Thereafter, the fluorescence signals were analyzed under a TCS-SP5 confocal microscope by staining the nuclei with Hoechst 33342, and the fluorescence signals of each cell were analyzed with the Image J program.
(§4) Obesity model mice were produced by feeding normal mice a high fat diet for 8 weeks, and FBP-8 was administered by intravenous injection twice a week for a total of 5 weeks (FIG. 13). After five weeks, the obesity model mice were sacrificed to isolate white adipose tissues and liver tissues and analyze the proportion of dead cells by TUNEL staining.

[6] = tested on: obesity model mice; assay: Gene expression in white adipose and liver tissues, obesity model mice, intravenous FBP-8; type: in vivo, C57BL/6 mice
Procedure: as §3
mRNA was extracted from liver tissues and white adipose tissues using RNAiso (Takara, Japan), and cDNA was synthesized with an iscript cDNA synthesis kit (Bio-Rad Laboratories, USA). Thereafter, a gene expression level was analyzed by the 7500 Fast Real-time PCR system (Applied Biosystems, USA). The expression level of each gene was normalized with the expression level of a GAPDH gene, and then calculated as a relative gene expression level with respect to the control.
as §4

[7] = tested on: obesity model mice; assay: Crown-like structure (CLS) in white adipose tissues, obesity model mice, intravenous FBP-8; type: in vivo, C57BL/6 mice; conditions: compared to negative control (CtrFBP)
Procedure: as §3
(§5) Liver tissue and white adipose tissue sections were stained with hematoxylin & eosin and then histologically analyzed under an optical microscope.

[8] = tested on: obesity model mice; assay: Pro-inflammatory cytokines in blood, obesity model mice, intravenous FBP-8; type: in vivo, C57BL/6 mice
Procedure: as §3, §2

[9] = tested on: obesity model mice; assay: Blood fatty acid, insulin, triglyceride, ALT and liver triglyceride, obesity model mice, intravenous FBP-8; type: in vivo, C57BL/6 mice
Procedure: as §3, §2

[10] = tested on: obesity model mice; assay: Liver morphology, weight and histological analysis, obesity model mice, intravenous FBP-8; type: in vivo, C57BL/6 mice
Procedure: as §3, §5

[11] = compared to negative control (CtrFBP)

For “YCDEHFCY (Fas binding peptide-8 (FBP-8))”, the cytotoxicity [1] was “little cytotoxicity was observed”, the “concentrations of IL-6 and MCP-1 in the cell culture solution” value [2] was “reduces” and the “co-staining with Fas-specific antibody in liver and white adipose tissue sections” value [3] was “the stained sites coincided”. The “fluorescence signal in the liver tissue of normal mice” value [4] was “a significant fluorescence signal could not be observed”, the “proportion of dead cells in liver tissue (TUNEL)” value [5] was 9±2.37% and the “proportion of dead cells in white adipose tissue (TUNEL)” value [5] was 31+2.37%. The “expression level of CD206 (anti-inflammatory macrophage marker) in liver tissues” value [6] was “no significant change”, the “expression levels of F480 and CD11c (pro-inflammatory macrophage markers) in white adipose tissue” value [6, 11] was “significantly reduced” and the “expression levels of F480 and CD11c in liver tissues” value [6, 11] was “decreased”. For the same sequence, the “expression levels of inflammation-related genes Fas, TNF-α, MCP-1 and IL-6 in liver tissues” value [6, 11] was “significantly reduced”, the “expression of inflammation-related genes Fas, TNF-α, MCP-1 and IL-6 in white adipose tissues” value [6, 11] was “reduced” and the “reduction of stearoyl-CoA desaturase (SCD-1) expression level in liver tissues” value [6, 11] was “about 30+5.32%”. The “crown-like structure (CLS) in white adipose tissues” value [7] was “remarkably reduced”, the “concentrations of IL-6 and MCP-1 in blood” value [8] was “decrease” and the “reduction of triglyceride (TG) concentration in blood” value [9] was “about 25%”. For the same sequence, the “reduction of triglyceride (TG) concentration in the liver tissue” value [9] was “about 50%”, the “decrease of fatty acid concentration in blood” value [9, 11] was “about 20%” and the “decrease of insulin concentration in blood” value [9, 11] was “about 20%”. The “reduction of blood alanine aminotransferase (ALT) level” value [9, 11] was no less than 30%, the “damage to the liver tissue (histological analysis)” value [10] was “inhibited” and the “size of the liver tissue” value [10, 11] was “smaller”. For the same sequence, the “weight of the liver tissue” value [10, 11] was “lighter”.
